Laboratory results reported in EP2928504B1, “PROTEIN-POLYMER-DRUG CONJUGATES” (Mersana Therapeutics, Inc., priority 2012, dated 2014).
Read-outs that look alike come from different tables or passages of the source.

Key:
Experiment in all cases: Cell viability assay (Cell Titer-Glo)
Assay type in all cases: cell-based
NCI-N87 = system: NCI-N87
BT474 = conditions: Homo sapiens, BT-474, 72 h
MCF7 = system: MCF7
HCT15 = system: HCT15
SKBR3 = conditions: Homo sapiens, SK-BR-3, 72 h
[1] = Homo sapiens, NCI-N87, 72 h, Table VIII, drug compounds, read-out: N87 IC50
[2] = Table VIII, drug compounds, read-out: BT474 IC50
[3] = Homo sapiens, MCF7, 72 h, Table VIII, drug compounds, read-out: MCF7 IC50
[4] = Homo sapiens, HCT-15, 72 h, Table VIII, drug compounds, read-out: HCT15 IC50
[5] = Table VIII, drug compounds, read-out: SKBR3 IC50

Row | Structure (SMILES) | IC50 (NCI-N87; [1]) [nM] | IC50 (BT474; [2]) [nM] | IC50 (MCF7; [3]) [nM] | IC50 (HCT15; [4]) [nM] | IC50 (SKBR3; [5]) [nM] | further results
1 | CCC(C)C(C(CC(=O)N1CCCC1C(OC)C(C)C(=O)NC(Cc1ccccc1)C(=O)OCCN)OC)N(C)C(=O)C(NC(=O)C(C(C)C)N(C)C)C(C)C (stereo not shown) | 0.89 |  |  |  |  | 
2 | CCC(C)C(C(CC(=O)N1CCCC1C(OC)C(C)C(=O)NC(Cc1ccccc1)C(=O)NCCN)OC)N(C)C(=O)C(NC(=O)C(C(C)C)N(C)C)C(C)C (stereo not shown) | 0.89 |  |  |  |  | 
3 | CCC(C)C(C(CC(=O)N1CCCC1C(OC)C(C)C(=O)NC(Cc1ccccc1)C(=O)NCCCOC(=O)C1CCCN1)OC)N(C)C(=O)C(NC(=O)C(C(C)C)N(C)C)C(C)C (stereo not shown) | 1.51 | 3.5 | 3.3 | 85.7 | 0.88 | 
4 | COc1cc2cc(C(=O)N3C[C@@H](CCl)c4c3cc(OC(=O)CCN)c3ccccc43)[nH]c2c(OC)c1OC |  | 6.54 | 1.4 | 2.5 | 2.07 | 
5 | COc1cc2cc(C(=O)N3C[C@@H](CCl)c4c3cc(OC(=O)[C@@H]3CCCN3)c3ccccc43)[nH]c2c(OC)c1OC | 0.93 | 4.55 |  | 1.53 | 1.34 | 
6 | COc1cc2cc(C(=O)N3C[C@@H](CCl)c4c3cc(OC(=O)[C@@H](N)C(C)C)c3ccccc43)[nH]c2c(OC)c1OC | 0.96 | 3.47 |  |  | 0.95 | 
7 | COc1cc2cc(C(=O)N3C[C@@H](CCl)c4c3cc(OC(=O)N(C)CCO)c3ccccc43)[nH]c2c(OC)c1OC | 30 | 68 | 100 | 100 | 21.5 | 
8 | COc1cc2cc(C(=O)N3C[C@@H](CCl)c4c3cc(OC(=O)N3CCN(CCN)CC3)c3ccccc43)[nH]c2c(OC)c1OC |  |  |  |  |  | IC50 (BT474; read-out: BT474 IC50, Table VIII, drug compounds): 100 nM; IC50 (MCF7; Homo sapiens, MCF7, 72 h, read-out: MCF7 IC50, Table VIII, drug compounds): 100 nM; IC50 (NCI-N87; Homo sapiens, NCI-N87, 72 h, read-out: N87 IC50, Table VIII, drug compounds): 77 nM; IC50 (HCT15; Homo sapiens, HCT-15, 72 h, read-out: HCT15 IC50, Table VIII, drug compounds): 68 nM; IC50 (SKBR3; read-out: SKBR3 IC50, Table VIII, drug compounds): 100 nM
9 | CCCO[C@H](C[C@H](C(C)C)N(CCC)C(=O)[C@@H](NC(=O)[C@H]1CCCCN1C)[C@@H](C)CC)c1nc(C(=O)N[C@@H](Cc2ccc(O)cc2)C[C@H](C)C(=O)OCCCN)cs1 |  |  |  | 23 |  | 
10 | CCCO[C@H](C[C@H](C(C)C)N(CCC)C(=O)[C@@H](NC(=O)[C@H]1CCCCN1C)[C@@H](C)CC)c1nc(C(=O)N[C@@H](Cc2ccc(OC(=O)NCCCCN)cc2)C[C@H](C)C(=O)O)cs1 | 0.24 | 0.1 | 0.68 | 4.6 | 0.08 | 
11 | CCC(C)C(C(CC(=O)N1CCCC1C(OC)C(C)C(=O)NC(Cc1ccccc1)C(=O)OC)OC)N(C)C(=O)C(NC(=O)C(C(C)C)N(C)C)C(C)C (stereo not shown) [drawing 761 (R42 = -CH3)] | 0.03 | 0.09 | 0.27 | 0.41 |  | 
12 | CCC(C)C(C(CC(=O)N1CCCC1C(OC)C(C)C(=O)NC(Cc1ccccc1)C(=O)NO)OC)N(C)C(=O)C(NC(=O)C(C(C)C)N(C)C)C(C)C (stereo not shown) [drawing 765 (R40 = -OH)] |  | 20.6 | 39 |  | 12 | 
13 | CCC(C)C(C(CC(=O)N1CCCC1C(OC)C(C)C(=O)NC(Cc1ccccc1)C(N)=O)OC)N(C)C(=O)C(NC(=O)C(C(C)C)N(C)C)C(C)C (stereo not shown) [drawing 765 (R40 = H)] |  |  | 1.78 |  | 0.32 | 
14 | CCC(C)C(C(CC(=O)N1CCCC1C(OC)C(C)C(=O)NC(Cc1ccccc1)C(=O)NCC(C)O)OC)N(C)C(=O)C(NC(=O)C(C(C)C)N(C)C)C(C)C (stereo not shown) [drawing 771] | 0.69 | 1.27 | 1.88 | 31.8 | 0.44 | 
15 | CCC(C)C(C(CC(=O)N1CCCC1C(OC)C(C)C(=O)NC(Cc1ccccc1)C(=O)NCC(C)O)OC)N(C)C(=O)C(NC(=O)C(C(C)C)N(C)C)C(C)C (stereo not shown) [drawing 772] |  |  |  |  |  | IC50 (MCF7; Table VIII, drug compounds, 72 h, read-out: MCF7 IC50): 2.06 nM; IC50 (NCI-N87; Table VIII, drug compounds, 72 h, read-out: N87 IC50): 0.78 nM; IC50 (HCT15; Table VIII, drug compounds, 72 h, read-out: HCT15 IC50): 32.4 nM
16 | CCC(C)C(C(CC(=O)N1CCCC1C(OC)C(C)C(=O)NC(C)C(O)c1ccccc1)OC)N(C)C(=O)C(NC(=O)C(C(C)C)N(C)C)C(C)C (stereo not shown) [drawing 777 (R90 = -H)] | 0.24 |  |  | 10.1 |  | 
17 | COc1cc2cc(C(=O)N3C[C@@H](CCl)c4c3cc(O)c3ccccc43)[nH]c2c(OC)c1OC [drawing 780 (R91 = H)] |  | 3.7 | 0.99 | 1.75 | 1.05 | 
18 | CCCO[C@H](C[C@H](C(C)C)N(CCC)C(=O)[C@@H](NC(=O)[C@H]1CCCCN1C)[C@@H](C)CC)c1nc(C(=O)N[C@@H](Cc2ccc(O)cc2)C[C@H](C)C(N)=O)cs1 [drawing 786 (R43 = H, R78 = -NH2)] | 3.2 | 1.35 | 3.3 |  | 1.6 | 
19 | CCCO[C@H](C[C@H](C(C)C)N(CCC)C(=O)[C@@H](NC(=O)[C@H]1CCCCN1C)[C@@H](C)CC)c1nc(C(=O)N[C@@H](Cc2ccc(O)cc2)C[C@H](C)C(=O)OC)cs1 [drawing 786 (R43 = H, R78 = -OCH3)] |  |  | 3.02 |  | 0.71 | 
20 | CCCO[C@H](C[C@H](C(C)C)N(CCC)C(=O)[C@@H](NC(=O)[C@H]1CCCCN1C)[C@@H](C)CC)c1nc(C(=O)N[C@@H](Cc2ccc(O)cc2)C[C@H](C)C(=O)O)cs1 [drawing 786 (R43 = H, R78 = -OH)] | 0.1 | 0.04 |  | 0.29 | 0.06 | 
